These compounds were tested against Cell division control protein 42 homolog (Homo sapiens) (UniProt P60953) (assay: wildtype Cdc42 GTP-binding inhibitors, SAR follow-up, biochemical, multiplex bead flow cytometry, round 1 (AID 588377)). Details: GST-Cdc42 wt beads, fluorescent GTP binding;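 active = compounds whose fitted EC50 is 10 µM or lower and whose response changes by 30 percent or more; inactive = the rest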.
Cell division control protein 42 homolog (Homo sapiens), sequence (P60953 whole entry, looked up): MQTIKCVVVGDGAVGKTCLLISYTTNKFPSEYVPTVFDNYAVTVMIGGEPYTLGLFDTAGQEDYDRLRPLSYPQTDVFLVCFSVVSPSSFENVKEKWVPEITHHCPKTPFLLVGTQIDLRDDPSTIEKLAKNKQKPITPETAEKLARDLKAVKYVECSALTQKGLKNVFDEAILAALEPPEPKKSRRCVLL

EC50, active:
O=C(C#Cc1ccccc1)c1cccc([N+](=O)[O-])c1 3.94 µM, COc1ccc(C2CC(c3ccccc3)=NN2c2ccc(S(N)(=O)=O)cc2)cc1 (stereo not drawn) 0.823 µM, NS(=O)(=O)c1ccc(N2N=C(c3ccccc3)CC2c2ccccc2)cc1 (stereo not drawn) 4.13 µM
